Data: publication PMC5297980 (Clinical Pharmacology in Drug Development, 2016)

Assays:
[1] = Phase 1 digoxin-isavuconazole interaction study, plasma PK; format: in vivo, human
[2] = Phase 1 methotrexate-isavuconazole interaction study, plasma PK; format: in vivo, human
[3] = test system: multidrug and toxin extrusion 1 (MATE1); conditions: HEK293 cells, [^14C]metformin substrate; ref data on file; cited from earlier work
[4] = test system: organic anion transporter 1 (OAT1); conditions: HEK293 cells, [^3H]‐p‐aminohippuric acid substrate; ref data on file; cited from earlier work
OAT3 = conditions: HEK293 cells, [^3H]estrone sulfate substrate; ref data on file; cited from earlier work
[5] = test system: organic anion‐transporting polypeptide 1B1 (OATP1B1); conditions: HEK293 cells, [^3H]estradiol 17β‐D‐glucuronide substrate; ref data on file; cited from earlier work
[6] = test system: organic cation transporter 1 (OCT1); conditions: HEK293 cells, [^14C]tetraethylammonium bromide; ref data on file; cited from earlier work
OCT2 = conditions: HEK293 cells, [^14C]metformin substrate; ref data on file; cited from earlier work
[7] = Phase 1 metformin-isavuconazole interaction study, plasma PK
[8] = Phase 1 atorvastatin-isavuconazole interaction study, plasma PK; conditions: human, oral, 200 mg
P‐gp = conditions: in vitro studies; cited from earlier work
[9] = cited from earlier work
[10] = OATP1B1 substrate; cited from earlier work
[11] = methotrexate + isavuconazole (day 8), mean (SD)
[12] = methotrexate + isavuconazole vs methotrexate alone
[13] = methotrexate alone (day 1), mean (SD)

C[C@@H](c1nc(-c2ccc(C#N)cc2)cs1)[C@](O)(Cn1cncn1)c1cc(F)ccc1F [Isavuconazole, isavuconazole]
AUC ([1]; human, plasma, oral, 200 mg): 102000 ng·h/mL
Cmax ([1]; human, plasma, oral, 200 mg): 6100 ng/mL
Tmax ([1]; human, plasma, oral, 200 mg): 3 h
AUC ([2]; human, plasma, oral, 200 mg): 99400 ng·h/mL
Cmax ([2]; human, plasma, oral, 200 mg): 6200 ng/mL
Tmax ([2]; human, plasma, oral, 200 mg): 3 h
IC50 [3]: 6.31 µM
IC50 [4]: > 10 µM
IC50 (OAT3): > 10 µM
IC50 [5]: 11.2 µM
IC50 [6]: 3.74 µM
Ki [6]: 1.74 µM
IC50 (OCT2): 1.97 µM
Ki (OCT2): 0.69 µM
AUC ([7]; human, plasma, oral, 200 mg): 106000 ng·h/mL
Cmax ([7]; human, plasma, oral, 200 mg): 7100 ng/mL
Tmax ([7]; human, plasma, oral, 200 mg): 3 h
AUC [8]: 77300 ng·h/mL
Cmax [8]: 5300 ng/mL
Tmax [8]: 3 h

CN(Cc1cnc2nc(N)nc(N)c2n1)c1ccc(C(=O)N[C@@H](CCC(=O)O)C(=O)O)cc1 [Methotrexate, methotrexate]
Cmax ([2]; human, plasma, oral, 7.5 mg): 156 ng/mL
Tmax ([2]; human, plasma, oral, 7.5 mg): 1 h
AUC(0-inf) ([2]; human, plasma, po, 7.5 mg): 620 ng·h/mL
Mean AUClast lower when coadministered with isavuconazole ([2]; vs methotrexate alone): 3%
Mean AUC∞ lower when coadministered with isavuconazole ([2]; vs methotrexate alone): 3%
Mean Cmax lower when coadministered with isavuconazole ([2]; vs methotrexate alone): 11%

OC(Cn1cncn1)(Cn1cncn1)c1ccc(F)cc1F [fluconazole]
inhibition of P‐gp‐mediated active transport (P‐gp): not an inhibitor

CN(C)C(=N)N=C(N)N [Metformin, metformin]
AUC(0-t) ([7]; human, plasma, oral, 850 mg): 9120 ng·h/mL
Tmax ([7]; metformin + isavuconazole (day 8), median (range)): 2.0 (1.0‐4.0) h
Cmax ([7]; metformin alone (day 1), mean (SD)): 1467 (449) ng/mL
Tmax ([7]; metformin alone (day 1), median (range)): 2.5 (1.0‐6.0) h
AUC∞ ([7]; metformin hydrochloride 850 mg single oral dose alone (day 1), mean (SD)): 9303 (2543) h·ng/mL
Mean AUClast higher in the presence vs absence of isavuconazole ([7]; metformin study): 50%
Mean AUC∞ higher in the presence vs absence of isavuconazole ([7]; metformin study): 52%
Mean Cmax higher in the presence vs absence of isavuconazole ([7]; metformin study): 23%

C[C@H]1O[C@@H](O[C@H]2[C@@H](O)C[C@H](O[C@H]3[C@@H](O)C[C@H](O[C@H]4CC[C@@]5(C)[C@H](CC[C@@H]6[C@@H]5C[C@@H](O)[C@]5(C)[C@@H](C7=CC(=O)OC7)CC[C@]65O)C4)O[C@@H]3C)O[C@@H]2C)C[C@H](O)[C@@H]1O [Digoxin, digoxin]
Mean AUClast higher in the presence vs absence of isavuconazole ([1]; digoxin study): 24%
Mean AUC∞ higher in the presence vs absence of isavuconazole ([1]; digoxin study): 25%
Mean Cmax higher in the presence vs absence of isavuconazole ([1]; digoxin study): 33%
AUC(0-t) ([1]; human, plasma, oral, 0.5 mg): 32.9 ng·h/mL
Cmax ([1]; human, plasma, oral, 0.5 mg): 1.6 ng/mL
half-life ([1]; human, plasma, oral, 0.5 mg): 40.9 h
AUC(0-inf) ([1]; human, plasma, po, 0.5 mg): 34.4 ng·h/mL

CC[C@@H]([C@H](C)O)n1ncn(-c2ccc(N3CCN(c4ccc(OC[C@@H]5CO[C@@](Cn6cncn6)(c6ccc(F)cc6F)C5)cc4)CC3)cc2)c1=O [Posaconazole]
effect on plasma concentrations of digoxin ([9]; ref NOXAFIL package insert): increase plasma concentrations of digoxin

CN(Cc1nc2c(N)nc(N)nc2[nH]c1=O)c1ccc(C(=O)N[C@@H](CCC(=O)O)C(=O)O)cc1 [7‐Hydroxymethotrexate, 7‐hydroxymethotrexate]
AUC∞ ([2]; methotrexate 7.5 mg single oral dose alone (day 1), mean (SD)): 635.8 (309.3) h·ng/mL
AUClast [2, 11]: 683.2 (272.5) h·ng/mL
Cmax [2, 11]: 36.7 (14.0) ng/mL
t1/2 [2, 11]: 13.0 (2.3) h
Tmax ([2]; methotrexate + isavuconazole (day 8), median (range)): 6.0 (3.5‐10.0) h
AUClast geometric least‐squares mean ratio (90% confidence interval) [2, 12]: 124 (114, 135) %
AUC∞ geometric least‐squares mean ratio (90% confidence interval) [2, 12]: 129 (119, 141) %
Cmax geometric least‐squares mean ratio (90% confidence interval) [2, 12]: 115 (104, 127) %
AUClast [2, 13]: 554.6 (242.6) h·ng/mL
Cmax [2, 13]: 32.1 (13.4) ng/mL
t1/2 [2, 13]: 11.9 (2.9) h
Tmax ([2]; methotrexate alone (day 1), median (range)): 6.0 (5.0‐10.0) h
Mean AUClast higher during concomitant administration with isavuconazole ([2]; vs methotrexate alone): 24%
Mean AUC∞ higher during concomitant administration with isavuconazole ([2]; vs methotrexate alone): 29%
Mean Cmax higher during concomitant administration with isavuconazole ([2]; vs methotrexate alone): 15%

CCC(C)n1ncn(-c2ccc(N3CCN(c4ccc(OCC5COC(Cn6cncn6)(c6ccc(Cl)cc6Cl)O5)cc4)CC3)cc2)c1=O (stereo not drawn) [itraconazole]
increase in plasma digoxin concentrations during coadministration [9]: approximately 80%

CCOc1cc(CC(=O)N[C@@H](CC(C)C)c2ccccc2N2CCCCC2)ccc1C(=O)O [repaglinide]
PK in the presence and absence of isavuconazole [10]: unchanged
